From publication PMC9380671, “Development of spiro-3-indolin-2-one containing compounds of antiproliferative and anti-SARS-CoV-2 properties” (Scientific Reports, 2022)
Where two headings read alike, the source gives them in different places.

Columns and labels:
[1] = test system: HCT116 (colon) cancer cell line; assay: MTT antiproliferation, HCT116; type: cell-based, human; details: for IC50: Homo sapiens, HCT-116, 72 h, read-out: IC50 (µM) ± SEM HCT116; for SI (selectivity index) HCT116: IC50 of RPE1/IC50 of cancer cell line
Procedure: (§1) Antiproliferation properties of the targeted agents were investigated by the standard MTT technique against diverse human cancer cell lines [MCF7 (breast), HCT116 (colon), A431 (skin squamous) and PaCa2 (pancreatic)][67] (Table 1, Supplementary Figs. S48‒S51).
(§2) Cells were seeded at concentration of 30000 cells per well in fresh complete growth medium in 96-well tissue culture microtiter plates for 24 h. […] 0.5% DMSO was used as negative control. Triplicate wells were prepared for each individual dose. After 72 h of incubation, medium was aspirated, 40 μl MTT salt (2.5 mg ml^-1) was added to each well and incubated for further 4 h at 37 °C. To stop the reaction and dissolve the formed crystals, 150 μl of 10% sodium dodecyl sulfate (SDS) in deionized water was added to each well and incubated overnight at 37 °C.
(§3) Data were collected as mean values for experiments performed in triplicates for each individual dose which had been measured by MTT assay. […] The cell surviving fraction was calculated according to the following equation.
(§4) Surviving fraction = OpticaldensityO.D.oftreatedcellsO.D.ofcontrolcells
(§5) Statistical calculations for determination of the mean and standard error mean values were determined by SPSS 16 software.

[2] = MTT cytotoxicity assay (CC50); type: cell-based; details: African green monkey, VERO-E6 cells
Procedure: The cytotoxic activity of the compounds was tested in VERO-E6 cells by using the 3-(4,5-dimethylthiazol-2-yl)-2,5-diphenyltetrazolium bromide (MTT) method with minor modifications. Briefly, the cells were seeded in 96 well-plates […] at a density of 3 x 10^5 cell/ml and incubated for 24 h at 37 °C in 5% CO2. After 24 h, cells were treated with various concentrated of the tested compounds in triplicates. 24 h later, the supernatant was discarded and cell monolayers were washed with sterile 1x phosphate buffer saline (PBS) 3 times and MTT solution (20 µl of 5 mg/ml) was added to each well and incubated at 37 °C for 4 h followed by medium aspiration. In each well, the formed formazan crystals were dissolved with 200 µl of acidified isopropanol (0.04 M HCl in absolute isopropanol = 0.073 ml HCl in 50 ml isopropanol). Eventually, the absorbance was measured at λmax 570 nm using the Anthos Zenyth 200rt plate reader (Anthos Labtec Instruments, Heerhugowaard, Netherlands). The cytotoxicity of various concentrations compared to the untreated cells was determined using nonlinear regression analysis by plotting log inhibitor versus normalized response.^12^-14

[3] = test system: MCF7 (breast) cancer cell line; assay: MTT antiproliferation, MCF7; type: cell-based, human; details: for IC50: Homo sapiens, MCF7, 72 h, read-out: IC50 (µM) ± SEM MCF7; for SI (selectivity index) MCF7: IC50 of RPE1/IC50 of cancer cell line
Procedure: as §1, §2, §3, §4, §5

[4] = target: BChE (Homo sapiens, UniProt P06276); assay: BChE inhibition (DTNB, butyrylthiocholine iodide)
[5] = target: AChE (Homo sapiens, UniProt P22303); assay: AChE inhibition (DTNB, acetylthiocholine); type: biochemical; details: for IC50: read-out: AChE (IC50, μM) ± SD
Procedure: All compounds were dissolved in MeOH.

[6] = test system: SARS-CoV-2 (hCoV-19/Egypt/NRC-03/2020); assay: Vero-E6 cell viral infection model, anti-SARS-CoV-2 IC50 (CPE, crystal violet); type: cell-based; details: for IC50: Severe acute respiratory syndrome coronavirus 2, Vero C1008; for SI = CC50/IC50: Vero-E6, SARS-CoV-2
[7] = target: T1, EGFR (Homo sapiens, UniProt P00533); type: cell-based; details: western blot, MCF7, compound at its MTT IC50; for EGFR RQ (relative quantification): control RQ 3.4461
T1 construct: Western blot technique was considered for EGFR and VEGFR-2 properties determination; endogenous in cells; host or cells: MCF7 (breast cancer cell line)
Excerpt: (§6) The western blot technique was applied utilizing the IC50 observed for each respective agent synthesized during MTT assay[85],[86]. Consideration of multi-targeted inhibitory properties investigation is based in the fact that cancer initiation and proliferation sometimes utilizes many receptors or signaling pathways.
(§7) Western blot technique was considered for EGFR and VEGFR-2 properties determination utilizing the IC50 observed of each respective agent synthesized during MTT assay against MCF7 (breast) cancer cell line. All the studies were conducted according to the manufacturer’s instruction.^10,^11

[8] = target: T2, VEGFR-2 (Homo sapiens, UniProt P35968); type: cell-based; details: western blot, MCF7, compound at its MTT IC50; for VEGFR-2 RQ (relative quantification): control RQ 3.2634
T2 construct: Western blot technique was considered for EGFR and VEGFR-2 properties determination; endogenous in cells; host or cells: MCF7 (breast cancer cell line)
Excerpt: as §6, §7

[9] = test system: RPE1 (normal human immortalized retinal pigment epithelial cell line); assay: MTT toxicity towards normal cells, RPE1; type: cell-based; details: RPE-1, read-out: IC50 (µM) ± SEM RPE1
Procedure: The safety of the synthesized agents against non-cancer/normal RPE1 (retinal pigment epithelium) cell line was assessed (Table 1, Supplementary Fig. S52). The SI (selectivity index) for the tested compounds against RPE1 cell line confirms the safety towards non-cancer cells. […] Compound 6d and 6h which are also of high anti-PaCa2 show remarkable SI values (SI = > 3.8, > 3.6, respectively).
The agents synthesized were also tested against RPE1 (normal human immortalized retinal pigment epithelial cell line) cell (in DMEM-F12 medium) to determine the toxicity/selectivity towards normal cells relative to the cancer cell lines utilized.
(§8) Statistical calculations for determination of the mean and standard error mean values were determined by SPSS 16 software. The observed anti-proliferative properties are presented in Table 1 (Supplementary Figs. S48‒S52).

[10] = test system: A431 (skin squamous) cancer cell line; assay: MTT antiproliferation, A431; type: cell-based, human; details: for IC50: Homo sapiens; for SI (selectivity index) A431: IC50 of RPE1/IC50 of cancer cell line
Procedure: as §1, §2, §3, §4, §5

[11] = test system: PaCa2 (pancreatic) cancer cell line; assay: MTT antiproliferation, PaCa-2; type: cell-based, human; details: for IC50: Homo sapiens, PaCa-2, 72 h, read-out: IC50 (µM) ± SEM PaCa-2; for SI (selectivity index) PaCa-2: IC50 of RPE1/IC50 of cancer cell line
Procedure: as §1
Cells were suspended in DMEM medium for MCF7, A431, PaCa-2 and McCoy’s 5A for HCT116 in addition to 1% antibiotic–antimycotic mixture (10000 μg ml^-1 potassium penicillin, 10000 μg ml^-1 streptomycin sulfate and 25 μg ml^-1 amphotericin B), 10% fetal bovine serum and 1% L-glutamine at 37 °C, under 5% CO2 and 95% humidity. Cells were seeded at concentration of 30000 cells per well in fresh complete growth medium in 96-well tissue culture microtiter plates for 24 h. Media was aspirated, fresh complete medium was added and cells were incubated with different concentrations of the tested compound to give a final concentration of [50, 25, 12.5 and 6.25 μM “in addition to 3.125, 1.56 and 0.78 μM in case of high potent analogues”). 0.5% DMSO was used as negative control. Triplicate wells were prepared for each individual dose. After 72 h of incubation, medium was aspirated, 40 μl MTT salt (2.5 mg ml^-1) was added to each well and incubated for further 4 h at 37 °C. To stop the reaction and dissolve the formed crystals, 150 μl of 10% sodium dodecyl sulfate (SDS) in deionized water was added to each well and incubated overnight at 37 °C. The absorbance was then measured at 570 nm and a reference wavelength of 595 nm.
as §3, §4, §8

[12] = Vero-E6, 72 h, reduction of virus-induced CPE, read-out: IC50 (µM) SARS-CoV-2
[13] = log of observed IC50 in μM, read-out: Observed log(IC50, μM) (SARS-CoV-2) (converted)
[14] = A-431, 72 h, read-out: IC50 (µM) ± SEM A431
[15] = A-431, read-out: Observed log(IC50, μM) (A431) (converted)

Sequence of BChE (P06276 29-602, species assumed): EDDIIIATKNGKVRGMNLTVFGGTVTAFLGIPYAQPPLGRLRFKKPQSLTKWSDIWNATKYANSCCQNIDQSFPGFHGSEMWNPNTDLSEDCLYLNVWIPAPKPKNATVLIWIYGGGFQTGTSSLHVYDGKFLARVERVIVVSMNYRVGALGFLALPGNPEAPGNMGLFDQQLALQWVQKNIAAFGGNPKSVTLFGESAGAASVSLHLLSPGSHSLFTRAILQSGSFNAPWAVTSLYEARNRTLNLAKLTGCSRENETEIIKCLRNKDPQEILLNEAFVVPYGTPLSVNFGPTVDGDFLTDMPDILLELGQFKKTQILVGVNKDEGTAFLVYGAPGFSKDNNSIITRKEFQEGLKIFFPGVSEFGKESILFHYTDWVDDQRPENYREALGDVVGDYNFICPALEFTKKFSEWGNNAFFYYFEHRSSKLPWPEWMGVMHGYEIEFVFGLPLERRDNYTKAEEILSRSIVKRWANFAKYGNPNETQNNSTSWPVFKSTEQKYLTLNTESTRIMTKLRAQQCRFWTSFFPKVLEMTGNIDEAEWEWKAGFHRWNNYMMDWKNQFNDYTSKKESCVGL
T2 sequence (P35968 20-1356): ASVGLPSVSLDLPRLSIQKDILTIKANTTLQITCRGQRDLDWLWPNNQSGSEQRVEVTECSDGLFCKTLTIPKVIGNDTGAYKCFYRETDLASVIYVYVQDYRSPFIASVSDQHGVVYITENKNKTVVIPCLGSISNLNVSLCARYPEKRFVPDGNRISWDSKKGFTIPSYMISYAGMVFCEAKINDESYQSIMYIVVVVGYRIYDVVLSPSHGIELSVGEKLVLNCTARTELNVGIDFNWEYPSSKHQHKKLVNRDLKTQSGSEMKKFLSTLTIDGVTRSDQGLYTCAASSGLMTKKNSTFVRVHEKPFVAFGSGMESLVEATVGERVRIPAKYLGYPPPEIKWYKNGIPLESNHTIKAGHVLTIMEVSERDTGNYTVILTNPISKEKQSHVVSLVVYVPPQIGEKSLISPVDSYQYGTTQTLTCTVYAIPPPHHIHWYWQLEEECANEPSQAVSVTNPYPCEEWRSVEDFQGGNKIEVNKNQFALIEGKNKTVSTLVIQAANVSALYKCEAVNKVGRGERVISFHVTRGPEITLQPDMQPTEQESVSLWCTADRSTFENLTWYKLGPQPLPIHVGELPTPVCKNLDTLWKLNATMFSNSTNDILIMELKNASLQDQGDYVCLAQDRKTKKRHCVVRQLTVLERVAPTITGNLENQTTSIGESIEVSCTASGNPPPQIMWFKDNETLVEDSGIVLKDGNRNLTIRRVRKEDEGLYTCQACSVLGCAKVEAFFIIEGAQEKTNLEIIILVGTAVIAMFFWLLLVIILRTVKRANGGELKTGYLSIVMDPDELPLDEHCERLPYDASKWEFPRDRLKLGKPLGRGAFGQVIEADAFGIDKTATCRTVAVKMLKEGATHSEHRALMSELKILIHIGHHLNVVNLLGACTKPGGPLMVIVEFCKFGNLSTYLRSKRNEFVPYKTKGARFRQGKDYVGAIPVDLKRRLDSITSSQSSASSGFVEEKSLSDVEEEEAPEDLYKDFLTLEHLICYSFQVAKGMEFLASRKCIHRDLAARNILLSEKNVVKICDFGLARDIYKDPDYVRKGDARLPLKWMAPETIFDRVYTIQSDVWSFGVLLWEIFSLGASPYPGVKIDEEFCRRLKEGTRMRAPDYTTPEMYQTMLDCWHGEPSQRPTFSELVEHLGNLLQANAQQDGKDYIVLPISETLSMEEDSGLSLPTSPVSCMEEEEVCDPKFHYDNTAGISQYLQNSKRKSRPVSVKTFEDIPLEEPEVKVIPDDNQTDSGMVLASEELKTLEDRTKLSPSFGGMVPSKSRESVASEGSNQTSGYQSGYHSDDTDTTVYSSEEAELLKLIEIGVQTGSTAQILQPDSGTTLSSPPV
T1 sequence (P00533 25-1210): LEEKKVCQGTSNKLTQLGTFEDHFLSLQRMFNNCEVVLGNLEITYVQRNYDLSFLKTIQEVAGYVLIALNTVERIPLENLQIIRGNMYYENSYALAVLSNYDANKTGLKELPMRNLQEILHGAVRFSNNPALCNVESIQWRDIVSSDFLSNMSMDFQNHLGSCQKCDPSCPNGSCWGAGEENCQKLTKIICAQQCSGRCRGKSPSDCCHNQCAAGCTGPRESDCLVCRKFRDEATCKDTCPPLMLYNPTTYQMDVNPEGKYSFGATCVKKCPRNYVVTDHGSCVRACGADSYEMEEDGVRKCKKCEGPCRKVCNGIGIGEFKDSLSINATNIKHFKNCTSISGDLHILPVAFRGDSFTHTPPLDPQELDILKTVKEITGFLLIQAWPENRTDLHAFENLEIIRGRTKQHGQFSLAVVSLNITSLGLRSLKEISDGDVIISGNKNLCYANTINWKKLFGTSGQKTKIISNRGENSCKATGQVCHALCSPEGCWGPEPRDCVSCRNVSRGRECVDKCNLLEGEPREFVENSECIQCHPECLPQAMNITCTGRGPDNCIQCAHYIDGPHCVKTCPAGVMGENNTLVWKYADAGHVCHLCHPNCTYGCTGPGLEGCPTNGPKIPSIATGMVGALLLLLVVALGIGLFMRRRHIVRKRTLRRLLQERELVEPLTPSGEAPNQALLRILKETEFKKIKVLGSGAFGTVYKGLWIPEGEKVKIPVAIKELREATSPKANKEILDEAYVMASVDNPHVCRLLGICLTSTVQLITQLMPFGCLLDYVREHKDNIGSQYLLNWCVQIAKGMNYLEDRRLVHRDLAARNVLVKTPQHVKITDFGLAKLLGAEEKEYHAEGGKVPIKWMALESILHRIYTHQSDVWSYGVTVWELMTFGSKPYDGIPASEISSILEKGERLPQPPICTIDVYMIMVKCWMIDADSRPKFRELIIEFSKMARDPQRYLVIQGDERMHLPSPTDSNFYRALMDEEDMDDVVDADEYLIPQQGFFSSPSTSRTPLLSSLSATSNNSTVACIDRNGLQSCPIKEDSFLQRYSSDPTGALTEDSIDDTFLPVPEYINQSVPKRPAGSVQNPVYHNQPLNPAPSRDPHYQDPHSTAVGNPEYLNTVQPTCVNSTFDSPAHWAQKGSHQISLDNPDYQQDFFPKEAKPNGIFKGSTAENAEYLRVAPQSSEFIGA
Sequence of AChE (P22303 32-614): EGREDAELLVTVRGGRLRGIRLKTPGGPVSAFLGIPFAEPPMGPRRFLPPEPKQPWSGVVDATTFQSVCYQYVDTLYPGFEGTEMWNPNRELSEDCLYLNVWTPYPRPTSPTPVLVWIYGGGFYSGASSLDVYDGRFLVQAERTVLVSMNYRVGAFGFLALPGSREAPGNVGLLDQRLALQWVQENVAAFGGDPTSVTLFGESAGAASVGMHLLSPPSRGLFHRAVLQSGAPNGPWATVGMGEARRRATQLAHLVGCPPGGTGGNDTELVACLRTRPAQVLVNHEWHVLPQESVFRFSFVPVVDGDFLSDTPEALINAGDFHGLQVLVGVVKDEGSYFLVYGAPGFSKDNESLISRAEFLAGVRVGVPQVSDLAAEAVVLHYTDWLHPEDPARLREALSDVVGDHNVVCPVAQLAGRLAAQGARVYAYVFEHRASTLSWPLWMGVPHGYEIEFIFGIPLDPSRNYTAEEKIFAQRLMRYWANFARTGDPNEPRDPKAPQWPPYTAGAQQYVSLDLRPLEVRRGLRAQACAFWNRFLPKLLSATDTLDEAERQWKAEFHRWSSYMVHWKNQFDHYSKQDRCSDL

Structure (SMILES) | IC50 [1] [µM] | SI (selectivity index) HCT116 [1] | CC50 at 24 h [2] [µM] | IC50 [3] [µM] | SI (selectivity index) MCF7 [3] | IC50 [4] [µM] | SI = IC50 (AChE)/IC50 (BChE) [5] | IC50 [5] [µM] | IC50 [6, 12] [µM] | IC50 [6, 13] [µM] | SI = CC50/IC50 [6] | EGFR % Inhibition [7] [%] | EGFR RQ (relative quantification) [7] | VEGFR-2 % Inhibition [8] [%] | VEGFR-2 RQ (relative quantification) [8] | IC50 [9] [µM] | IC50 [10, 14] [µM] | IC50 [10, 15] [µM] | SI (selectivity index) A431 [10] | IC50 [11] [µM] | also measured
CN1CC(c2ccc(F)cc2)C2(CN(S(C)(=O)=O)C/C(=C\c3ccc(F)cc3)C2=O)C12C(=O)Nc1ccc(Cl)cc12 (centres unmarked) [Compound 6f, (E)-5-Chloro-5″-(4-fluorobenzylidene)-4′-(4-fluorophenyl)-1′-methyl-1″-(methylsulfonyl)dispiro[indoline-3,2′-pyrrolidine-3′,3″-piperidine]-2,4″-dione] | 5.43 ± 0.46 | 3.3 | 67.8 | 5 ± 0.39 | 3.6 | 3.75 ± 0.71 | 1.0 | 3.89 ± 1.66 | 7.67 | 7.67 | 8.8 | 69.3 | 1.058 | 64.7 | 1.153 | 17.8 ± 0.87 | 4.76 ± 0.37 | 4.76 | 3.7 | 11.7 ± 0.94 | times the potency of chloroquine against SARS-CoV-2 ([6]; ratio of IC50 values): about 3.3 times; times the potency of hydroxychloroquine against SARS-CoV-2 ([6]; ratio of IC50 values): ~4.8 times; SI (selectivity index) PaCa-2 [11]: 1.5
CCS(=O)(=O)N1C/C(=C\c2ccc(Cl)cc2)C(=O)C2(C1)C(c1ccc(Cl)cc1)CN(C)C21C(=O)Nc2ccccc21 (centres unmarked) [Compound 6k, (E)-5″-(4-Chlorobenzylidene)-4′-(4-chlorophenyl)-1″-(ethylsulfonyl)-1′-methyldispiro[indoline-3,2′-pyrrolidine-3′,3″-piperidine]-2,4″-dione] | 4.17 ± 0.38 | 3.5 | 55.5 | 4.38 ± 0.26 | 3.4 | 19.6 ± 2.1 | 1.6 | 32.3 ± 4.78 | 8.43 | 8.43 | 6.6 | 66.2 | 1.163 | 66.2 | 1.105 | 14.8 ± 0.99 | 2.97 ± 0.29 | 2.97 | 5.0 | 8.83 ± 0.7 | SI (selectivity index) PaCa-2 [11]: 1.7
CN1CC(c2ccccc2)C2(CN(S(C)(=O)=O)C/C(=C\c3ccccc3)C2=O)C12C(=O)Nc1ccccc12 (centres unmarked) [Compound 6a, (E)-5″-Benzylidene-1′-methyl-1″-(methylsulfonyl)-4′-phenyldispiro[indoline-3,2′-pyrrolidine-3′,3″-piperidine]-2,4″-dione] | 16 ± 1.1 | > 3.1 | 5430 | 19.8 ± 0.99 | > 2.5 | 19.8 ± 2.18 | 1.1 | 22.2 ± 3.35 | 34.3 | 34.3 | 158.6 | 66.4 | 1.1593 | 60.9 | 1.2773 | > 50 | 32.3 ± 1.14 | 32.3 | > 1.5 | 48.4 ± 2.23 | SI (selectivity index) PaCa-2 [11]: > 1.0
CN1CC(c2ccc(Cl)cc2)C2(CN(S(C)(=O)=O)C/C(=C\c3ccc(Cl)cc3)C2=O)C12C(=O)Nc1ccccc12 (centres unmarked) [Compound 6i, (E)-5″-(4-Chlorobenzylidene)-4′-(4-chlorophenyl)-1′-methyl-1″-(methylsulfonyl)dispiro[indoline-3,2′-pyrrolidine-3′,3″-piperidine]-2,4″-dione] | 5.47 ± 0.32 | 2.7 | 235 | 5.01 ± 0.29 | 2.9 | 13.6 ± 2.12 | 1.3 | 18.2 ± 1.48 | 113 | 113 | 2.1 | 68.7 | 1.077 | 64.2 | 1.1684 | 14.8 ± 1.57 | 4.4 ± 0.49 | 4.4 | 3.4 | 9.04 ± 0.62 | SI (selectivity index) PaCa-2 [11]: 1.6
